Converted amounts (≈) assume the structure as drawn. Like-named read-outs stand apart in the source and are kept apart here.
Key:
Format in all cases: physicochemical
[1] = Solid stability of anhydrous crystal Form A on storage (XRPD form, TGA, HPLC purity); settings: for HPLC Purity (area %): solid
Description: (§1) Purity analysis was performed on an Agilent HP1100 series system equipped with a diode array detector and using ChemStation software vB.04.03 using the method detailed below in Table 3.
Thermogravimetric analysis (TGA) data were collected using a TA Q500/Q5000 TGA from TA Instruments. Differential scanning calorimetry (DSC) was performed using a TA Q200/Q2000 DSC from TA Instruments.
About 40 mg of a sample of formula (I) Form A was kept at each corresponding condition for one month without significant changes. […] No significant effect of the shoulder peaks on form or HPLC purity was observed.
Samples of formula (I) anhydrous crystalline Form A were stored as solids at 25° C./60% RH, 30° C./˜56%, and 40° C./75% RH for the time periods listed below. The samples were prepared in duplicate with an offset of 2 weeks. Each replicate was stored in a different container.

[2] = Solubility in simulated gastric fluid and pH-adjusted water at room temperature; settings: thermodynamic from solid
Text: The pH values of the aqueous solutions after the solubility test were 5.13 and 5.15, respectively.

[3] = Solution stability of Form A in water/organic solvent mixtures (HPLC purity); settings: for HPLC purity, API (RRT 1.00): about 10 mg/mL; for chemical purity in solution: time 0, across water/organic solvent mixtures
Description: as §1
Samples of formula (I) anhydrous crystalline Form A were stored as solutions in water mixed with acetonitrile, tetrahydrofuran, isopropyl alcohol, or ethanol at room temperature and 35° C. for 7-8 days. The sample concentration was about 10 mg/mL and was kept stirring.

[4] = Equilibrium solubility in water; settings: for Final Form / solubility at 6 h: Water; for Final Form: solids checked by XRPD; for solubility at 6 h: thermodynamic from solid, equilibrated 6 hrs, HPLC
Description: Equilibrium solubility of formula (I) anhydrous Form A was measured in the water at 20° C. and 30° C. All samples were equilibrated at temperature for 6 hrs, and the solubility of supernatant was measured by HPLC, while the solids were checked by XRPD. (See Table 10.)

[5] = Dynamic vapor sorption (DVS)
[6] = Seed (after ground), 5° C., sealed

Compound: CC(O)[C@H](NC(=O)N[C@@H](CC(N)=O)c1nc([C@@H](N)CO)no1)C(=O)O (stereo in doubt) [Form A]
- Final Form ([1]; 25° C., 60% RH, 1 month): Form A
- TGA (%) ([1]; 25° C., 60% RH, 1 month): 0.60%
- Final Form ([1]; 25° C., 60% RH, 3 months): Form A
- TGA (%) ([1]; 25° C., 60% RH, 3 months): 2.8%
- Final Form ([1]; 40° C., 75% RH, 1 month): Form A
- TGA (%) ([1]; 40° C., 75% RH, 1 month): 1.0%
- Final Form ([1]; 40° C., 75% RH, 3 months): Form A
- TGA (%) ([1]; 40° C., 75% RH, 3 months): 1.9%
- Final Form ([1]; 60° C., sealed, 1 month): Form A
- TGA (%) ([1]; 60° C., sealed, 1 month): 0.6%
- Final Form ([1]; 60° C., sealed, 3 months): Form A
- TGA (%) ([1]; 60° C., sealed, 3 months): 2.1%
- Final Form ([1]; Initial): Form A
- TGA (%) ([1]; Initial): 0.40%
- Final Form [1, 6]: Form A
- TGA (%) [1, 6]: 0.4%
- solid form and particle morphology after storage ([1]; one month and three months at 25° C./60% RH, 40° C./75% RH, and 60° C.): remained unchanged
- degradation (chemical purity of solid sample) after storage ([1]; solid sample of about 40 mg, storage for one month): no significant degradation was observed
- HPLC Purity (area %) ([1]; 25° C., 60% RH, 1 month): 99.83 area %
- HPLC Purity (area %) ([1]; 25° C., 60% RH, 3 months): 99.80 area %
- HPLC Purity (area %) ([1]; 40° C., 75% RH, 1 month): 99.81 area %
- HPLC Purity (area %) ([1]; 40° C., 75% RH, 3 months): 99.79 area %
- HPLC Purity (area %) ([1]; 60° C., sealed, 1 month): 99.85 area %
- HPLC Purity (area %) ([1]; 60° C., sealed, 3 months): 99.74 area %
- HPLC Purity (area %) ([1]; Initial): 99.86 area %
- solubility ([2]; simulated gastric fluid (SGF), simulated gastric fluid, read-out: solubility in simulated gastric fluid (SGF)): > 114 mg/mL
- solubility ([2]; water with pH adjusted by NaOH and HCl, aqueous buffer, pH 7.08 (pH 5.13 after test), read-out: solubility in water solution with pH adjusted by NaOH and HCl): 87.5 to 117 mg/mL (≈ 243 to 324 mM)
- solubility ([2]; water with pH adjusted by NaOH and HCl, aqueous buffer, pH 9.14 (pH 5.15 after test), read-out: solubility in water solution with pH adjusted by NaOH and HCl): 83.5 to 111 mg/mL (≈ 232 to 309 mM)
- HPLC purity, API (RRT 1.00) ([3]; 35° C., ACN/H2O (1:1, v/v), 0 h): 99.58%
- HPLC purity, API (RRT 1.00) ([3]; 35° C., ACN/H2O (1:1, v/v), 4 h): 99.44%
- HPLC purity, API (RRT 1.00) ([3]; 35° C., ACN/H2O (1:1, v/v), 24 h): 98.42%
- HPLC purity, API (RRT 1.00) ([3]; 35° C., EtOH/H2O (1:1, v/v), 0 h): 99.58%
- HPLC purity, API (RRT 1.00) ([3]; 35° C., EtOH/H2O (1:1, v/v), 4 h): 99.47%
- HPLC purity, API (RRT 1.00) ([3]; 35° C., EtOH/H2O (1:1, v/v), 24 h): 99.11%
- HPLC purity, API (RRT 1.00) ([3]; 35° C., IPA/H2O (1:2, v/v), 0 h): 99.57%
- HPLC purity, API (RRT 1.00) ([3]; 35° C., IPA/H2O (1:2, v/v), 4 h): 99.35%
- HPLC purity, API (RRT 1.00) ([3]; 35° C., IPA/H2O (1:2, v/v), 24 h): 99.21%
- HPLC purity, API (RRT 1.00) ([3]; 35° C., THF/H2O (1:1, v/v), 0 h): 99.56%
- HPLC purity, API (RRT 1.00) ([3]; 35° C., THF/H2O (1:1, v/v), 4 h): 99.37%
- HPLC purity, API (RRT 1.00) ([3]; 35° C., THF/H2O (1:1, v/v), 24 h): 98.30%
- chemical purity in solution ([3]; 35° C.): about 99.6%
- HPLC purity, API (RRT 1.00) ([3]; RT, ACN/H2O (1:1, v/v), 0 h): 99.65%
- HPLC purity, API (RRT 1.00) ([3]; RT, ACN/H2O (1:1, v/v), 4 h): 99.51%
- HPLC purity, API (RRT 1.00) ([3]; RT, ACN/H2O (1:1, v/v), 24 h): 99.24%
- HPLC purity, API (RRT 1.00) ([3]; RT, EtOH/H2O (1:1, v/v), 0 h): 99.58%
- HPLC purity, API (RRT 1.00) ([3]; RT, EtOH/H2O (1:1, v/v), 4 h): 99.47%
- HPLC purity, API (RRT 1.00) ([3]; RT, EtOH/H2O (1:1, v/v), 24 h): 99.11%
- HPLC purity, API (RRT 1.00) ([3]; RT, IPA/H2O (1:2, v/v), 0 h): 99.59%
- HPLC purity, API (RRT 1.00) ([3]; RT, IPA/H2O (1:2, v/v), 4 h): 99.52%
- HPLC purity, API (RRT 1.00) ([3]; RT, IPA/H2O (1:2, v/v), 24 h): 99.21%
- HPLC purity, API (RRT 1.00) ([3]; RT, THF/H2O (1:1, v/v), 0 h): 99.64%
- HPLC purity, API (RRT 1.00) ([3]; RT, THF/H2O (1:1, v/v), 4 h): 99.47%
- HPLC purity, API (RRT 1.00) ([3]; RT, THF/H2O (1:1, v/v), 24 h): 99.19%
- chemical purity in solution ([3]; room temperature): about 99.6%
- Final Form ([4]; 20° C.): Form A
- Final Form ([4]; 30° C.): Form A
- form change during solubility testing ([4]; XRPD, FIG. 9): No form change was observed
- solubility at 6 h ([4]; 20° C.): 125 mg/mL (≈ 347 mM)
- solubility at 6 h ([4]; 30° C.): 137 mg/mL (≈ 381 mM)
- hygroscopicity ([5]; DVS, up to 80% RH): slightly hygroscopic
- form change during DVS testing ([5]; XRPD before and after DVS, FIG. 11): No form change was observed
- mass change in DVS ([5]; up to 80% RH): about 0.66%
